“Also recorded” adds a separate entry of the source. Where no end group is shown, it is not given here. [ ]: non-standard residue; d: D form.
Tests used:
[1] = tested on: Primary rat neurons; experiment: Glutamate induced cell death of primary neurons, in vitro ischemia model (MTS assay); format: cell-based; details: for rescue of primary neurons from glutamate induced cell death / number of cells surviving glutamate compared with TI-JIP: 250 μM glutamate; for rescue of primary neurons from glutamate induced cell death: live cells assayed 24 hours later, FIG. 19, 20; for number of cells surviving glutamate compared with TI-JIP: versus known c-Jun dimerization inhibitory peptide TI-JIP, FIG. 19
Method: Primary neuronal cells were isolated and cultured in the presence of glutamate (250 μM) for […] to induce cell death as a model of ischemia induced cell death.
Primary rat neurons were isolated from embryos (standard protocols), plated in cell culture dishes and maintained for 11 days in culture before experiment. Peptide was added 15 minutes to media before glutamate addition. Glutamate was added to final concentrations of 250 micromolar, for 5 mins at 37 degrees. Glutamate media removed, fresh media added. Assays for live cells done 24 hours later. Live cells were assayed using MTS assay.

[2] = tested on: Primary rat neuronal cells; experiment: Glutamate induced cell death of primary neurons, D and L amino acid synthetic peptides; format: cell-based; details: FIG. 21; for protection of neurons from glutamate induced cell death: 250 μM glutamate for 5 minutes; for protection offered by the D form relative to the L form of the peptide: same concentrations, glutamate induced cell death
Excerpt: D amino acid forms of peptides SP35 (designated D35) (SEQ ID NO: 132) and SP36 (designated D36) (SEQ ID NO: 136) comprising D amino acids other than glycine were produced synthetically, as were peptides SP35, SP36 and TIJIP comprising L-amino acids. The retro-inverted peptides further comprised a TAT protein targeting domain fused to the C-terminus of the inverted peptide moiety and separated therefrom by a single L-glycine residue in each case. The amino acid sequences of the retro-inverted peptide analogues of SEQ ID NOs: 132 and 136 are set forth in SEQ ID NOs: 181 and 182, respectively.
Primary rat neuronal cells were isolated and cultured using methods known in the art. Cells were then incubated in the presence or absence of a test peptide, a positive control peptide (Ti JIP) or a combination of known small-molecule glutamate inhibitors (MK801 and CNQX). Cells were incubated in the presence of 250 μM glutamate for 5 minutes to induce cell death representative of ischemia induced cell death.

[3] = tested on: SIRC cells; experiment: UV B induced cell death, FACS for propidium iodide and Annexin V; format: cell-based; details: 10 minutes UV B, media containing 10 micromolar peptide, FIG. 18c
Method: Cells were exposed to UV B radiation and the level of cell death determined. Briefly, corneal keratinocytes in culture were exposed to IOmins UV irradiation. Post-exposure, media was replaced with either normal media or media containing 10 micromolar peptide. Subsequently, cells were prepared for FACS analysis. FACS analysis was used to detect propidium iodide and the level of Annexin V in a cell to determine the number of cells undergoing necrosis, early apoptosis or late apoptosis.

[4] = tested on: AP-I luciferase reporter; experiment: AP-1 luciferase reporter assay in K562-AP1 cells transfected with pcDNA3-peptide; format: cell-based; details: 48 hours after transfection, compared to control cells, p<0.05, FIG. 15
Method: The K562 cell line was stably-transfected with the AP-I luciferase reporter of the Mercury Profiling kit (Clontech, U.S.A.), and clonal cell line 26 established. In 6-well tissue culture plate format, K562-AP1 cells were transfected with either pcDNA3 control, pcDNA3-Jun or pcDNA3-peptide using Lipofectamine-2000 (Life Technologies), according to manufacturer's instructions. Transfections were incubated for 48 hours, cells collected and protein lysates extracted for luciferase assay according to Mercury Profiling kit and associated protocols. Luciferase assays were performed in independent triplicates, and results for each peptide subjected to statistical analysis (SPSS software package) to determine if they were different to Jun (positive control for AP-1 activation) or pcDNA-3 (negative control for AP-I activation).

[5] = tested on: Primary rat neuronal cells; experiment: Acute ischemia: anaerobic incubation of primary neurons (MTS assay); format: cell-based; details: anaerobic incubator for 35 minutes, peptide 15 mins pre-insult, MTS 24 hours later; FIG. 22
Method: Cells at the core of an ischemic event (e.g., a stroke) are subject to anaerobic conditions leading to severe energy depletion and glutamate release, which causes necrotic cell death. Such a condition is mimicked by incubating cell cultures in anaerobic conditions.
To determine the effect of peptides 35 (SEQ ID NO: 130) and 36 (SEQ ID NO: 134) comprising either D- or L-amino acids on an acute ischemic effect, primary rat neuronal cells were isolated and cultured. Synthetic peptides were added to cultures and the cells maintained in an anaerobic chamber for approximately 35 minutes. Cell survival was then measured.
Briefly, isolated rat neurons were treated with peptide for 15 mins pre-insult. After addition of peptide or control, Cells were washed in glucose free balanced salt solution containing deoxy glucose to prevent glycolysis. Cells were then incubated in anaerobic incubator for 35 minutes. Post insult, solution was removed, fresh media added to cells and MTS assayed for live cells 24 hours later.

[6] = biological target: T1, c-Jun (Homo sapiens, UniProt P05412); experiment: Co-immunoprecipitation of c-Jun with FLAG-tagged peptides from HEK293 cells; format: binding; details: anti-FLAG capture, anti-c-Jun detection, FIG. 16
T1 construct: expressed in transfected cells; host or cells: HEK293
T1 sequence (P05412 whole entry): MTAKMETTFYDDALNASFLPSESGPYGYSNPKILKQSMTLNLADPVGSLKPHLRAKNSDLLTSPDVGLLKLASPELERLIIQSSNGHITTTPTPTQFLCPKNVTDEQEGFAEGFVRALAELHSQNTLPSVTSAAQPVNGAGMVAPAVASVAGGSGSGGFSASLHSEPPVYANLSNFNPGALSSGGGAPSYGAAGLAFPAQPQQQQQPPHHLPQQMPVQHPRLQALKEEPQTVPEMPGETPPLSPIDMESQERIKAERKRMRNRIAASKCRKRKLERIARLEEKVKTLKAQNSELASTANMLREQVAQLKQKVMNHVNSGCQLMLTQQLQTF
Method: HEK293 cells were cultured in DMEM+10% FCS, 2 mM L-glutamine. On the day prior to transfection, cells were trypsinised and split into 6-well tissue culture plates so that they reached 80-90% confluency for transfection. Cells were co-transfected with pcDNA3-Jun (1.3 μg) and pcDNA3-peptide (2.6 μg) using Lipofectamine-2000 reagent (Life Technologies, U.S.A.) as per manufacturer's instructions. Forty-eight hours post-transfection, transfected cells were scraped from the plates, collected by centrifugation and proteins extracted in hypotonic lysis buffer (1OmM Tris, 1OmM NaCl, 2 mM EDTA, pH 7.5+protease inhibitors (Roche, U.S.A.)). Salt concentration was adjusted to 15OmM by addition of NaCl, debris pelleted and proteins in supernatant collected in fresh tubes.
A small aliquot (40 μl) of protein was set aside for western analysis. The remainder was incubated by rotation at 4° C. for two hours, with either anti-Flag conjugated agarose beads (Sigma-Aldrich, U.S.A.) anti-Flag antibody (Sigma-Aldrich), preconjugated to anti-mouse magnetic Dynabeads (Dynal Biotech, Norway) according to manufacturer's directions. Protein complexes bound to conjugated beads were collected by centrifugation or over a Dynal magnet, washed eight times for five minutes with NET-2 buffer (50 mM Tris-Cl pH7.5, 150 mM NaCl, 0.05% Nonidet P-40). […]

Row | Substance | rescue of primary neurons from glutamate induced cell death [1] | number of cells surviving glutamate compared with TI-JIP [1] | protection of neurons from glutamate induced cell death [2] | expression of a reporter gene under control of an AP-I regulatory region [4] | protection offered by the D form relative to the L form of the peptide [2] | rescue of cells from cell death caused by acute ischemia [5] | also measured
1 | SP36: c-Jun dimerization inhibitory peptide; amino acid SEQ ID NO: 134 with flanking vector sequence, 136 without (GLQGRRRQGYQSIKP) | capable of rescuing a significant proportion of cells from cell death; also recorded: capable of rescuing almost all cells from cell death; also recorded: dose dependent manner | considerably greater | protects a considerable proportion of neurons from glutamate induced cell death | significantly reducing expression of a reporter gene | – | – | cells rescued from glutamate induced cell death ([1]; about 5 μM of peptide, FIG. 20): about 100%; number of cells undergoing apoptosis after UV B exposure [3]: capable of reducing the number of cells undergoing apoptosis
2 | D36: retro-inverted analogue of SEQ ID NO: 136 with C-terminal TAT domain after a single L-glycine; SEQ ID NO: 182 ([dP][dK][dI][dS][dQ][dY]G[dQ][dR][dR][dR]G[dQ][dL]GGRRRQRRKKRG; also: C-terminal TAT domain: chirality not given here) [Peptide D36] | – | – | protects a considerable proportion of neurons from glutamate induced cell death | – | equivalent | a considerable proportion of cells from cell death | –
3 | D35: retro-inverted analogue of SEQ ID NO: 132 with C-terminal TAT domain after a single L-glycine; SEQ ID NO: 181 ([dR][dE][dR][dR][dS][dS][dS][dQ][dI]GG[dS][dR][dI][dS][dQ][dY][dA]GRRRQRRKKRG; also: C-terminal TAT domain: chirality not given here) [Peptide D35] | – | – | protects a considerable proportion of neurons from glutamate induced cell death | – | superior | a considerable proportion of cells from cell death | –
4 | SP71: c-Jun dimerization inhibitory peptide; amino acid SEQ ID NO: 158 with flanking vector sequence, 160 without (PFFWRLNKIFYFIDSRVAAAILN) | capable of rescuing a significant proportion of cells from cell death | considerably greater | – | significantly reducing expression of a reporter gene | – | – | –
5 | SP20: c-Jun dimerization inhibitory peptide; amino acid SEQ ID NO: 94 with flanking vector sequence, 96 without (IYSSILWGTKWCVLLVITP) | – | – | – | – | – | – | binding of c-Jun in co-immunoprecipitation [6]: capable of binding c-Jun to a level detectable in a co-immunoprecipitation
6 | SP34: c-Jun dimerization inhibitory peptide; amino acid SEQ ID NO: 126 with flanking vector sequence, 128 without (AYQSINSSPVLPENSQELSLHLKQHVTKS) | – | – | – | significantly reducing expression of a reporter gene | – | – | –

Source: patent publication US20100029552A1, “Peptide inhibitors of c-jun dimerization and uses thereof” (Phylogica Limited, priority 2004, published 2010)
